Earlier results in article PMC4807944 (International Journal of Nanomedicine, 2016).

With `C=CC[C@@H]1/C=C(\C)C[C@H](C)C[C@H](OC)[C@H]2O[C@@](O)(C(=O)C(=O)N3CCCC[C@H]3C(=O)O[C@H](/C(C)=C/[C@@H]3CC[C@@H](O)[C@H](OC)C3)[C@H](C)[C@@H](O)CC1=O)[C@H](C)C[C@@H]2OC` [FK506, Tacrolimus] as the compound, how does the Aqueous solubility read?
The Aqueous solubility was 1 to 2 µg/mL.
